Patent EP4703354A1, “COMPOUND AS CCR6 ANTAGONIST, AND PHARMACEUTICAL COMPOSITION AND USE THEREOF” (Wuhan Createrna Science and Technology Co.,Ltd., priority 2023, dated 2024)
Where two headings read alike, the source gives them in different places.

What was measured:
[1] = in vivo pharmacokinetic study in SD rats; conditions: rat; for bioavailability: 1 mg/kg PO vs 1 mg/kg IV, read-out: Oral bioavailability F (%); for AUC(0-t) / Cmax / half-life: 1 mg/kg
In short: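 Male SD rats (180-200 g), 3 per route: single fasted oral gavage in 1% Tween 80 or tail-vein IV bolus in 50% PEG400. Orbital blood into EDTA-K2 sampled to 8 h; plasma analysed and PK parameters derived by non-compartmental analysis.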

[2] = in vitro liver microsome metabolic stability, beagle dog; assay type: in vitro ADME; conditions: Beagle dog liver microsomes, 37°C
Experimental: (§1) Preparation of working solutions for test compounds and standards: An appropriate amount of the compound was accurately weighed and dissolved in a corresponding volume of suitable solvent to prepare 1 mM stock solutions of the test compounds and standards. The stock solutions were then diluted with appropriate solvent to obtain 100 µM working solutions of the test compounds, ensuring that the DMSO content in the working solutions remained below 10%.
(§2) The internal standard compound testosterone (or tolbutamide) and its corresponding solvent, internal standard concentration (200 ng/mL), were selected based on the properties of the test compound.
(§3) • Solution A: 0.1 mol/L K2HPO4 (2.28 g K2HPO4·3H2O was dissolved in 100 mL of double-distilled water); • Solution B: 0.1 mol/L KH2PO4 (1.36 g KH2PO4 was dissolved in 100 mL of double-distilled water); • 80.2 mL of Solution A and 19.8 mL of Solution B were mixed thoroughly, and the pH was adjusted to 7.4.
(§4) 37.5 mg of glycine was weighed, dissolved in 100 mL of ultrapure water, and adjusted to pH 8.0 with NaOH.
(§5) 1.25 mg of glucose-6-phosphate dehydrogenase (400 U/mg) was weighed (the specific amount weighed was calculated based on the activity of the purchased glucose-6-phosphate dehydrogenase), dissolved in 1 mL of glycine buffer to a concentration of 500 U/mL, aliquoted into 20 µL per tube, and stored at -20°C for future use.
(§6) 7.83 mg of NADP, 0.06 mL of D-glucose-6-phosphate (260 mg/mL), and 10.17 mg of MgCl2·6H2O were precisely weighed.
(§7) The mixture was dissolved in 1 mL of pure water. The cofactor ratio composition: NADP 10 mM, D-glucose-6-phosphate 60 mM, MgCl2·6H2O 50 mM.
(§8) The reaction system (taking a 500 µL system as an example) was composed of the following solution ratios: 416.5 µL phosphate buffer, 5 µL compound working solution, 25 µL liver microsomes, 3.5 µL glucose-6-phosphate dehydrogenase, and 50 µL cofactor solution. The total incubation volume could be adjusted according to experimental requirements.
(§9) 416.5 µL of phosphate buffer was taken, 25 µL of liver microsomes, 3.5 µL of glucose-6-phosphate dehydrogenase, and 50 µL of cofactor solution were added, vortexed twice to mix, and preincubated in a 37°C water bath for 5 minutes. Then, 5 µL of the test compound working solution was added, vortexed twice to mix, each time for 2-3 seconds, and placed in a 37°C water bath to initiate the reaction, with two parallel samples set. At 0.5 min, 1 min, 2 min, 5 min, 15 min, and 30 min after the reaction, 50 µL of the mixture was taken and added to centrifuge tubes containing 200 µL of 0°C pre-cooled internal standard working solution to terminate the reaction, vortexed for 1 minute to mix, and centrifuged at 13,000 rpm for 10 minutes in a 4°C pre-cooled high-speed centrifuge. The supernatant was collected for analysis. After the compound was added and vortex-mixed, 50 µL of the mixture was rapidly transferred to a centrifuge tube containing 200 µL of a pre-cooled (0°C) internal standard working solution to terminate the reaction, vortex-mixed for 1 minute, and used as the relative zero-point sample (relative to the standard group). The sample was then placed into a 37°C water bath to initiate the reaction, and timing was started.
(§10) The sample analysis of the test compound was performed using the liquid chromatography-tandem mass spectrometry (LCMS/MS) method. The semi-quantitative determination was performed using the ratio of the analyte peak area to the internal standard peak area. The retention times of the analyte and internal standard, chromatogram acquisition, and chromatogram integration were processed using Analyst software.
(§11) The in vitro elimination rate constant k of the test compound and the control compound was determined by converting the ratio of the peak area of the test compound to the internal standard into the remaining rate, and T1/2 was then calculated according to the following formula. T1/2 = (Ln2)/(k) = (0.693)/(k) [formula] Table 3. […]

[3] = in vitro liver microsome metabolic stability, rat; assay type: in vitro ADME; conditions: Rat liver microsomes, 37°C
Experimental: as §1, §2, §3, §4, §5, §6, §7, §8, §9, §10, §11

[4] = in vitro liver microsome metabolic stability, human; assay type: in vitro ADME; conditions: Human liver microsomes, 37°C
Experimental: as §1, §2, §3, §4, §5, §6, §7, §8, §9, §10, §11

[5] = molecular target: T1, human CCR6 (Homo sapiens, UniProt P51684); experiment: human CCR6 calcium flux activity (FLIPR, HEK293 cells stably expressing human CCR6, CCL20 stimulation); assay type: cell-based; conditions: HEK293 cells stably expressing human CCR6, EC80 human MIP-3 alpha/CCL20; read-out: CCR6 inhibitory activity, IC50
T1 construct: expressed in transfected cells; host or cells: HEK293
T1 sequence (P51684 1-374): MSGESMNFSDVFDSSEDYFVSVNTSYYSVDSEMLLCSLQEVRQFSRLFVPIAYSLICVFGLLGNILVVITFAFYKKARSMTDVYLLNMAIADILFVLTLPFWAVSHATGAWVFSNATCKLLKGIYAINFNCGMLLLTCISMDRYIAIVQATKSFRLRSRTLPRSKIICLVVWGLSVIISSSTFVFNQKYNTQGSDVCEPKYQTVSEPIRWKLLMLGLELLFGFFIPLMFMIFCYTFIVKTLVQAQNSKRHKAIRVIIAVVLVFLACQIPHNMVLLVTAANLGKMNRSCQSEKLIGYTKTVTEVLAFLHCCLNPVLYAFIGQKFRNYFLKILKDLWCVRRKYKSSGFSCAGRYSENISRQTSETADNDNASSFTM
In short: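 Compounds preincubated with Fluo-4 Direct-loaded cells 50 min at 37 °C, then 10 min at room temperature, before CCL20 challenge at EC80. Fluorescence (ex 494/em 516 nm) recorded 90 s; max−min signal gives inhibition, four-parameter fit yields IC50.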

SMILES	Liver microsome T1-2 (min) Beagle dog [2] [min]	Liver microsome T1-2 (min) Rat [3] [min]	Liver microsome T1-2 (min) Human [4] [min]	other results
Cc1cccnc1[C@H](Nc1c(Nc2ccnc(C(=O)N(C)C)c2O)c(=O)c1=O)[C@]1(C)CC(F)(F)CO1 (single isomer, unassigned) [128B]	222.45	216.24	158.82	bioavailability ([1]; male, plasma): 36.7%; AUC(0-t) ([1]; male, plasma, IV): 910 ng·h/mL; Cmax ([1]; male, plasma, IV): 3270 ng/mL; AUC(0-t) ([1]; male, plasma, PO): 334 ng·h/mL; Cmax ([1]; male, plasma, PO): 182 ng/mL
CN(C)C(=O)c1nccc(Nc2c(N[C@@H](c3ccc(Cl)cn3)C3(C)CCCC3)c(=O)c2=O)c1O [compound 013, (R)-4-((2-(((5-chloropyridin-2-yl)(1-methylcyclopentyl)methyl)amino)-3,4-dioxocyclobut-1-en-1-yl)amino)-3-hydroxy-N,N-dimethylpicolinamide]	252.63	54.23	345.84	IC50 [5]: 19.3 nM
Cc1nccnc1[C@H](Nc1c(Nc2ccc(Cl)c(C(=O)N(C)C)c2O)c(=O)c1=O)C1(C)CCCC1 [compound 078, (R)-6-chloro-2-hydroxy-N,N-dimethyl-3-((2-(((1-methylcyclopentyl)(3-methylpyrazin-2-yl)methyl)amino)-3,4-dioxocyclobut-1-en-1-yl)amino)benzamide]	1869.75	53.62	1014.44	IC50 [5]: 56.2 nM
Cc1cccnc1[C@H](Nc1c(Nc2ccc(Cl)c(C(=O)N(C)C)c2O)c(=O)c1=O)C1(C)CC(F)CO1 (stereo partly drawn) [compound 081, 6-chloro-3-((2-(((1S)-(4-fluoro-2-methyltetrahydrofuran-2-yl)(3-methylpyridin-2-yl)methyl)amino)-3,4-dioxocyclobut-l-en-1-yl)amino)-2-hydroxy-N,N-dimethylbenzamide]	669.81	403.32	713.96	
Cc1cccnc1[C@H](Nc1c(Nc2ccnc(C(=O)N(C)C)c2O)c(=O)c1=O)C1(C)CCCO1 (stereo partly drawn) [compound 082, 3-hydroxy-N,N-dimethyl-4-((2-(((1S)-(3-methylpyridin-2-yl)(2-methyltetrahydrofuran-2-yl)methyl)amino)-3,4-dioxocyclobut-1-en-1-yl)amino)picolinamide]	275.16	290.01	261.96	
Cc1cccnc1C(Nc1c(Nc2ccc(Cl)c(C(=O)N(C)C)c2O)c(=O)c1=O)C1(C)CCOC1 (stereo not shown) [compound 083, 6-chloro-2-hydroxy-N,N-dimethyl-3-((2-(((3-methylpyridin-2-yl)(3-methyltetrahydrofuran-3-yl)methyl)amino)-3,4-dioxocyclobut-1-en-1-yl)amino)benzamide]	741.46	290.38	412.77	

Now from value to compound, other results behind:

Liver microsome T1-2 (min) Beagle dog [2] [min]	Liver microsome T1-2 (min) Rat [3] [min]	Liver microsome T1-2 (min) Human [4] [min]	SMILES	other results
753.15	39.67	423.69	Cc1cccnc1[C@H](Nc1c(Nc2ccc(Cl)c(C(=O)N(C)C)c2O)c(=O)c1=O)C1(C)CC(F)(F)C1 [compound 088, (R)-6-chloro-3-((2-(((3,3-difluoro-1-methylcyclobutyl)(3-methylpyridin-2-yl)methyl)amino)-3,4-dioxocyclobut-l-en-1-yl)amino)-2-hydroxy-N,N-dimethylbenzamide]	
258.52	88.93	331.10	Cc1cccnc1[C@H](Nc1c(Nc2ccc(F)c(C(=O)N(C)C)c2O)c(=O)c1=O)C1(C)CC(F)(F)C1 [compound 089, (R)-3-((2-(((3,3-difluoro-1-methylcyclobutyl)(3-methylpyridin-2-yl)methyl)amino)-3,4-dioxocyclobut-1-en-1-yl)amino)-6-fluoro-2-hydroxy-N,N-dimethylbenzamide]	bioavailability ([1]; male, plasma): 21.1%; AUC(0-t) ([1]; male, plasma, IV): 772 ng·h/mL; Cmax ([1]; male, plasma, IV): 4300 ng/mL; AUC(0-t) ([1]; male, plasma, PO): 163 ng·h/mL; Cmax ([1]; male, plasma, PO): 96.4 ng/mL; half-life ([1]; male, plasma, PO): 2.61 h
355.30	50.16	209.60	Cc1nccnc1[C@H](Nc1c(Nc2ccc(F)c(C(=O)N(C)C(C)C)c2O)c(=O)c1=O)C1(C)CCCC1 [compound 090, (R)-6-fluoro-2-hydroxy-N-isopropyl-N-methyl-3-((2-(((1-methylcyclopentyl)(3-methylpyrazin-2-yl)methyl)amino)-3,4-dioxocyclobut-1-en-1-yl)amino)benzamide]	
338.24	72.62	717.09	Cc1nccnc1[C@H](Nc1c(Nc2ccnc(C(=O)N(C)C)c2O)c(=O)c1=O)C1(C)CCCC1 [compound 091, (R)-3-hydroxy-N,N-dimethyl-4-((2-(((1-methylcyclopentyl)(3-methylpyrazin-2-yl)methyl)amino)-3,4-dioxocyclobut-1-en-1-yl)amino)picolinamide]	
209.62	230.78	724.74	CN(C)C(=O)c1nccc(Nc2c(N[C@@H](c3nc(C(F)F)ccc3F)C3(C)CC(F)(F)CO3)c(=O)c2=O)c1O (stereo partly drawn) [compound 097, 4-((2-(((1S)-(4,4-difluoro-2-methyltetrahydrofuran-2-yl)(6-(difluoromethyl)-3-fluoropyridin-2-yl)methyl)amino)-3,4-dioxocyclobut-1-en-1-yl)amino)-3-hydroxy-N,N-dimethylpicolinamide]	
102.59	195.59	208.30	CN(C)C(=O)c1nccc(Nc2c(NC(c3nc(C(F)(F)F)ccc3F)C3(C)CC(F)(F)CO3)c(=O)c2=O)c1O (stereo not shown) [compound 098]	bioavailability ([1]; in vivo): 21.6%; AUC(0-t) ([1]; in vivo, IV): 630 ng·h/mL; Cmax ([1]; in vivo, IV): 2740 ng/mL; AUC(0-t) ([1]; in vivo, PO): 136 ng·h/mL; Cmax ([1]; in vivo, PO): 102 ng/mL; half-life ([1]; in vivo, PO): 2.74 h
